Data published in article PMC9182007, “Statistical Methods in the Study of Protein Binding and Its Relationship to Drug Bioavailability in Breast Milk” (Molecules, 2022).
Like-named read-outs stand apart in the source and are kept apart here.

Columns and labels:
[1] = molecular target: T1, bovine serum albumin (BSA) (Bos taurus, UniProt P02769); experiment: NP TLC on plates impregnated with bovine serum albumin; type: binding; conditions: for NP (Rf, BSA-impregnated NP plate): Table S3, NP plate impregnated with 2 mg/mL BSA, pH 7.4 mobile phase
T1 construct: purchased Sigma Aldrich
T1 sequence (P02769 25-607): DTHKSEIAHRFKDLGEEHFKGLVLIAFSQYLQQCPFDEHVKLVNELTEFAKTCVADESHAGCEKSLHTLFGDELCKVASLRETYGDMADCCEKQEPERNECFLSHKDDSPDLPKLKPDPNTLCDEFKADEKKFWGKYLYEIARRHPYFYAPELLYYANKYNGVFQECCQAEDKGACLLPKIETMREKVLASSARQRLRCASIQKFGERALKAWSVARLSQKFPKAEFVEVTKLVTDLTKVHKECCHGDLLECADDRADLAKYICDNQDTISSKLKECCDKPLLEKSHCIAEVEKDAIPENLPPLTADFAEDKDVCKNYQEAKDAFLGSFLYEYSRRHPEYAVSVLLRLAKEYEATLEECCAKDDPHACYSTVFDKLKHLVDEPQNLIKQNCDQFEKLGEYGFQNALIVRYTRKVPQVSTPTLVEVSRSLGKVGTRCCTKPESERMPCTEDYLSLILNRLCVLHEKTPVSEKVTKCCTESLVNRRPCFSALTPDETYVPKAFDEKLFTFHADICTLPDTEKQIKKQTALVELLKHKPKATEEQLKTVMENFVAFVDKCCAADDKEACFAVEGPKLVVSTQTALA
Description: (§1) Chromatographic descriptors were obtained in experiments, thin layer chromatography in normal (NP TLC) and reversed mode (RP TLC). The stationary phase was modified with bovine serum albumin (BSA). TLC was the source of retention factor (Rf) values, denoted in statistical models as NP and RP.
(§2) For TLC chromatography, glass plates 20 × 20 cm from Merck, covered with silica gel with the addition of a fluorescent indicator, were used. Normal phase (NP) plates were used with standard Merck TLC Silica gel 60 F254 plates, while in reverse phase (RP) silanized plates RP-2: Merck TLC Silica gel 60 RP-2 F254 were used.
(§3) The stationary phase of the plates, both NP and RP, was modified with an aqueous solution of bovine serum albumin purchased from Sigma Aldrich (bovine serum albumin, lyophilized powder).
(§4) The impregnation of the plates was carried out with a 2 mg/mL solution applied to the surface using a Desaga SG 1 hand sprayer; the plates were then air dried. […] Normal and reversed phase thin layer chromatography (NP TLC and RP TLC respectively) was performed using silica-gel-coated glass plates. Half of them were covered with 2 mg/mL bovine serum albumin solution and half remained pure.
(§5) The mobility of the compounds was also determined on the plates with no protein as a modifier. […] The acetate buffer (20 mM) was prepared by dissolving 1.54 g of ammonium acetate in 1 L of distilled water. The pH was then adjusted with a concentrated ammonia solution using a pH meter. The plates were developed in standard, vertical chromatographic chambers, each time using 100 mL of the mobile phase, after the chamber was previously saturated with solvent vapors for approximately 1 h.
(§6) The unfolded-protein-impregnated plates and the control plates were scanned with a Desaga CD 60 densitometer. The values of the delay factor (Rf) were collected, i.e., the ratio of the distance traveled by the substance to be analyzed to the distance traveled through the front of the mobile phase. […] The experiment was repeated (for both BSA-coated and control plates) and the Rf values pooled are the mean of both series of experiments.

[2] = ref DrugBank [7], cited from earlier work
[3] = molecular target: T2, human serum albumin (HSA) (Homo sapiens, UniProt P02768); experiment: in vitro; conditions: immobilized hsa column, pH 7.4
T2 sequence (P02768 25-609): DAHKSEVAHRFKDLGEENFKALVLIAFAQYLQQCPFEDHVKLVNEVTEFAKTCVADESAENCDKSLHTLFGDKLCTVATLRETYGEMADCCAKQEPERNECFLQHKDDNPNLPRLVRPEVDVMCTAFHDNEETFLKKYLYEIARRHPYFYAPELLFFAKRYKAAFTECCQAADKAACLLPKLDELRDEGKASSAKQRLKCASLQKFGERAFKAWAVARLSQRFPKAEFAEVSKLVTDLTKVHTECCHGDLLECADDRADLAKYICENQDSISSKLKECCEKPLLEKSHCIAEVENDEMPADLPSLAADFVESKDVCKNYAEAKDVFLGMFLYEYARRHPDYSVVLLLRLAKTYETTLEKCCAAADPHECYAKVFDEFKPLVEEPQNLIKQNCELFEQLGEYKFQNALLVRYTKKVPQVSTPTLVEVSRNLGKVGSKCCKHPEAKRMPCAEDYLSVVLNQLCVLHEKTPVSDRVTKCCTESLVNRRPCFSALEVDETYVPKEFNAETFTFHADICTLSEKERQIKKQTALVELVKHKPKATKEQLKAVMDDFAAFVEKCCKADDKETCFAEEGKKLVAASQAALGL

[4] = molecular target: T2, human serum albumin (HSA); conditions: for log k HSA: human, immobilized hsa column
[5] = system: plasma protein; conditions: ref DrugBank [7], cited from earlier work
[6] = cited from earlier work
[7] = NP TLC on non-impregnated control plates; type: physicochemical; conditions: for CNP (Rf, control NP plate): Table S3, non-impregnated NP plate, acetonitrile/acetate buffer pH 7.4/methanol 60:20:20
[8] = RP TLC on non-impregnated control plates; type: physicochemical; conditions: for CRP (Rf, control RP plate): Table S4, non-impregnated RP plate, acetonitrile/acetate buffer pH 7.4/methanol 60:20:20
[9] = HPLC on immobilized artificial membrane column (HPLCIAM); type: physicochemical; conditions: for log k IAM: Table S5, IAM column, pH 7.4; for k IAM: Table S5, retention factor, IAM column, phosphate buffer pH 7.4/acetonitrile 80:20
Protocol: High performance liquid chromatography was performed using immobilized human serum albumin column (HPLCHSA) and immobilized artificial membrane (HPLCIAM). HPLC was the source of the log k values (logarithm of retention factor), log kHSA and log kIAM.
The second experiment was performed using an immobilized artificial membrane (IAM) column. The assay was also performed on a Perkin Elmer Series 200 instrument connected to a UV-VIS spectrometer as the detector. The analytical wavelength was the same for all compounds, at 210 nm. […] The mobile phase was a mixture of 10 mM phosphate buffer pH 7.4 and acetonitrile in the ratio 80:20 (v/v). The phosphate buffer was obtained by dissolving the finished tablet in the appropriate amount of distilled water (1 tablet per 200 mL). In this case, it was not necessary to adjust the pH of the buffer using a pH meter.
The phase flow through the system was set to 0.5 mL/min as recommended by the column manufacturer. The solutions were delivered to the column using an autosampler syringe, the injection size was 10 µL.
The experiment was then repeated and the collected retention rates were the mean values of both series.

[10] = molecular target: T1, bovine serum albumin (BSA); experiment: RP TLC on plates impregnated with bovine serum albumin; type: binding; conditions: for RP (Rf, BSA-impregnated RP plate): Table S4, RP plate impregnated with 2 mg/mL BSA, pH 7.4 mobile phase
Description: as §1, §2, §3, §4, §5, §6

[11] = Milk-to-plasma (M/P) drug concentration ratio obtained in vivo, from literature; design: species or system human; conditions: Table S1, scale of drug penetration into milk 1-4
[12] = source not stated, cited from earlier work
[13] = Table S5, retention factor, HSA column, pH 7.4, 25 degrees Celsius
[14] = Table S1, plasma protein binding given as fraction
[15] = Table S1, milk/plasma drug concentration ratio, in vivo
[16] = Table S6, external group (n = 38), given as fraction

Row | SMILES | NP (Rf, BSA-impregnated NP plate) [1] | CNS+/- ([2]; Table S1, coded 1/0) | chromatographic logD [3] | k HSA [4, 13] | PB [5, 14] | M/P [6, 15] | CNP (Rf, control NP plate) [7] | CRP (Rf, control RP plate) [8] | log k IAM [9] | k IAM [9] | RP (Rf, BSA-impregnated RP plate) [10] | M/P code [11] | BB vivo ([12]; Table S1) | other results
1 | CC(=O)Oc1ccccc1C(=O)O [acetylsalicylic acid] | 0.90 | 1 | -0.51 | 0.31 | 0.995 | 1.08 | 0.89 | 0.98 | -1.52 | 0.03 | 0.99 | 3 (3 range 0.81–1.20—possibly over the safety limit) | – | –
2 | CN(C)CCC=C1c2ccccc2CCc2ccccc21 [amitriptyline] | – | – | 0.77 | – | – | – | – | – | – | – | – | – | – | NP (Rf value from the NP plate impregnated with 2 mg/mL BSA solution) ([1]; Table S8, external group): 0.31; CNS+/- ([2]; Table S6, external group, coded 1/0): 1; kHSA ([4]; Table S9, external group): 5.87; PB [5, 16]: 0.95; M/P ([6]; Table S6, external group (n = 38)): 0.92; CNP (Rf value from the non-impregnated NP plate, control) ([7]; Table S8, external group): 0.32; CRP (Rf value from the non-impregnated RP plate, control) ([8]; Table S8, external group): 0.67; log kIAM ([9]; Table S9, external group): 0.19; RP (Rf value from the RP plate impregnated with 2 mg/mL BSA solution) ([10]; Table S8, external group): 0.63; BB vivo ([12]; Table S6, external group): 0.89
3 | CC(C)C[C@H]1C(=O)N2CCC[C@H]2[C@]2(O)O[C@](NC(=O)[C@@H]3C=C4c5cccc6[nH]c(Br)c(c56)C[C@H]4N(C)C3)(C(C)C)C(=O)N12 [bromocriptine] | 0.96 | – | 0.91 | – | 0.93 | – | 0.95 | 0.69 | 1.10 | 12.69 | 0.70 | – | -1.100 | k HSA ([4]; pH 7.4): 8.09
4 | O=C1CC2(CCCC2)CC(=O)N1CCCCN1CCN(c2ncccn2)CC1 [buspirone] | – | – | – | – | – | – | – | – | 0.84 | 7.00 | – | – | 0.480 | –
5 | CN(C)CCCN1c2ccccc2Sc2ccc(Cl)cc21 [chlorpromazine] | 0.43 | – | 1.12 | 13.33 | 0.9 | – | 0.43 | 0.49 | 1.77 | 58.85 | 0.50 | – | 0.950 | –
6 | C[C@H]1c2cccc(O)c2C(=O)C2=C(O)[C@]3(O)C(=O)C(C(N)=O)=C(O)[C@@H](N(C)C)[C@@H]3[C@@H](O)[C@@H]21 [doxycycline] | 0.05 | 0 | 0.23 | 1.68 | 0.9 | 0.34 | 0.06 | 0.08 | 0.24 | 1.76 | 0.09 | 1 (Code 1 corresponds to drugs with an M/P value <0.40—completely safe) | – | –
7 | CCOC(=O)[C@H](CCc1ccccc1)N[C@@H](C)C(=O)N1CCC[C@H]1C(=O)O [enalapril] | 0.33 | 0 | -0.47 | 0.34 | 0.55 | 0.02 | 0.33 | 0.60 | -1.29 | 0.05 | 0.58 | 1 (Code 1 corresponds to drugs with an M/P value <0.40—completely safe) | – | –
8 | CCO [ethanol] | – | – | – | – | – | – | – | – | – | – | – | – | – | PB [5, 16]: 0.00; BB vivo ([12]; Table S6, external group): -0.16
9 | OCCN1CCN(CCC=C2c3ccccc3Sc3ccc(C(F)(F)F)cc32)CC1 [flupenthixol] | 0.52 | 1 | 1.19 | 15.36 | 0.95 | 1.15 | 0.51 | 0.66 | 1.71 | 51.21 | 0.66 | 3 (3 range 0.81–1.20—possibly over the safety limit) | – | –
10 | OCCOCCN1CCN(C(c2ccccc2)c2ccc(Cl)cc2)CC1 (stereo not shown) [hydroxyzine] | 0.55 | 1 | 0.57 | 3.69 | 0.93 | – | 0.55 | – | 1.14 | 13.82 | – | – | 0.285 | –
11 | COc1ccc2c(c1)c(CC(=O)O)c(C)n2C(=O)c1ccc(Cl)cc1 [indomethacin] | – | – | – | – | 0.97 | – | – | – | 0.03 | 1.08 | – | – | -1.260 | –
12 | Nc1nnc(-c2cccc(Cl)c2Cl)c(N)n1 [lamotrigine] | – | – | – | – | 0.55 | – | 0.89 | 0.87 | -0.15 | 0.71 | – | – | 0.480 | –
13 | O=C1Nc2ccc(Cl)cc2C(c2ccccc2Cl)=NC1O (stereo not shown) [lorazepam] | – | – | – | – | 0.87 | – | – | – | 0.96 | 9.04 | – | – | 0.440 | k HSA ([4]; pH 7.4): 2.21
14 | C[C@](N)(Cc1ccc(O)c(O)c1)C(=O)O [methyldopa] | 0.37 | 0 | -0.44 | 0.36 | 0.2 | 0.265 | 0.38 | 0.85 | -1.02 | 0.10 | 0.86 | 1 (Code 1 corresponds to drugs with an M/P value <0.40—completely safe) | – | –
15 | CCCN1C[C@H](CSC)C[C@@H]2c3cccc4[nH]cc(c34)C[C@H]21 [pergolide] | 0.47 | 1 | – | 0.07 | 0.9 | – | 0.48 | 0.55 | – | – | 0.53 | – | 0.300 | log k HSA ([4]; pH 7.4): -1.15
16 | CN1C(C(=O)Nc2ccccn2)=C(O)c2ccccc2S1(=O)=O [piroxicam] | 0.98 | 0 | 1.52 | 32.92 | – | 0.02 | 0.98 | 0.58 | -0.79 | 0.16 | 0.60 | 1 (Code 1 corresponds to drugs with an M/P value <0.40—completely safe) | – | –
17 | CN(C)CCCN1c2ccccc2Sc2ccccc21 [promazine] | 0.37 | 1 | – | 8.9 | 0.94 | – | 0.39 | 0.51 | -1.02 | 0.10 | 0.51 | – | 0.880 | log k HSA ([4]; pH 7.4): 0.95
18 | CN(C)CCc1c[nH]c2ccc(Cn3cncn3)cc12 [rizatriptan] | 0.20 | 1 | – | 2.06 | – | – | 0.20 | – | 0.40 | 2.53 | – | – | 0.780 | log k HSA ([4]; pH 7.4): 0.31
19 | Cn1c(=O)c2[nH]cnc2n(C)c1=O [theophylline] | – | – | – | – | – | – | – | – | -0.94 | 0.12 | – | – | -0.341 | –
20 | CSc1ccc2c(c1)N(CCC1CCCCN1C)c1ccccc1S2 (stereo not shown) [thioridazine] | 0.43 | – | – | 18.57 | – | – | 0.47 | 0.40 | 1.68 | 47.61 | 0.40 | – | 0.285 | log k HSA ([4]; pH 7.4): 1.27
21 | O=c1n(CCCN2CCN(c3cccc(Cl)c3)CC2)nc2ccccn12 [trazodone] | 0.72 | 1 | 0.35 | 2.22 | 0.92 | 0.53 | 0.71 | 0.76 | 0.97 | 9.30 | 0.74 | 2 (2 corresponds to the range of 0.40–0.80—at the safety limit) | – | –
22 | CCCC(CCC)C(=O)O [valproic acid] | 0.67 | 1 | 0.65 | 4.46 | 0.85 | 0.05 | 0.69 | 0.04 | -1.09 | 0.08 | 0.04 | 1 (Code 1 corresponds to drugs with an M/P value <0.40—completely safe) | – | –
23 | Cc1ccc(-c2nc3ccc(C)cn3c2CC(=O)N(C)C)cc1 [zolpidem] | – | – | – | – | – | – | – | – | 0.42 | 2.60 | – | – | -0.480 | k HSA ([4]; pH 7.4): 1.77
